The results in this text go back to patent US8586611B2 (priority 2005, dated 2013).

Common to all, as to format: in vivo
In assay [1] the test system is Phytophthora infestans. As to the kind of experiment: whole plant or invertebrate. The following applies: tomato late blight.
For assay [2], the system named is Phytophthora infestans. As to the kind of experiment: whole plant or invertebrate. The settings on record: tomato late blight. This is another data set of the same source.
A further assay concerns Plasmopara viticola. Nature of the assay: Test B: grape downy mildew, spray 24 h after inoculation (disease rating, 100 = 100% disease control). A digest of the protocol: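 This is a curative spray test, applied 24 h after inoculation. Compounds in 50/50 acetone–water with 250 ppm Trem 014 surfactant were sprayed to run-off on P. viticola-infected seedlings, with 200 ppm equating to 500 g/ha. Plants were kept 5 days in a 20 °C growth chamber, then 24 h humid, and scored 0–100 for disease control relative to controls.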

In assay [3] the test system is Erysiphe graminis f. sp. tritici. As to the kind of experiment: Test E: wheat powdery mildew, spray the day before inoculation (disease rating, 100 = 100% disease control). The essentials: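 Protective test: spores of E. graminis f. sp. tritici dusted on wheat seedlings one day after run-off spraying of test suspension (acetone/water with 250 ppm surfactant; 200 ppm = 500 g/ha). Ratings after 7 days in growth chamber at 20° C, 100 = full control, 0 = none, relative to controls.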

[4] abbreviates: sprayed 17 h after inoculation, unmarked compounds (no asterisk, not 40 or 10 ppm).
[5] abbreviates: sprayed the day before inoculation, unmarked compounds (no asterisk, not 40 or 10 ppm).
Where [6] appears, read: sprayed 24 h after inoculation, unmarked compounds (no asterisk, not 40 or 10 ppm).
The mark [7] stands for this setting: sprayed the day before inoculation, 7 days at 20° C., unmarked compounds (no asterisk, not 40 or 10 ppm).
Where [8] appears, read: spray 17 h after inoculation, compounds without asterisk (not 40 or 10 ppm).
Setting [9] is: spray the day before inoculation, compounds without asterisk (not 40 or 10 ppm).
The mark [10] stands for this setting: spray 24 h after inoculation, compounds without asterisk (not 40 or 10 ppm).

Each structure is given as a SMILES string.

`C[C@@H](NC(=O)c1csc(C2CCN(C(=O)Cc3cccc(Br)c3)CC2)n1)c1ccccc1F` [compound 276]: the “Test D disease rating (100 = 100% disease control, 0 = no disease control)” value in the assay with Phytophthora infestans [1] (setting [4]) was 0. Moreover, the “Test C disease rating (100 = 100% disease control, 0 = no disease control)” value in the assay on Phytophthora infestans [2] (setting [5]) turned out to be 17. Besides, the “Test B disease rating (100 = 100% disease control, 0 = no disease control)” value in the assay on Plasmopara viticola (setting [6]) is listed as 30. For the same compound, the “Test E disease rating (100 = 100% disease control, 0 = no disease control)” value in assay [3] (setting [7]) was determined as 0.

As for `Cc1ccc(C)c(CC(=O)N2CCC(c3nc(C(=O)N(C)C4CCOc5ccccc54)cs3)CC2)c1` (stereo not drawn) [compound 137], in the assay on Phytophthora infestans [1] (setting [8]), the “Test D disease rating (100 = 100% disease control, 0 = no disease control)” value is recorded as 93%. For the same compound, in the assay on Phytophthora infestans [2] (setting [9]), the “Test C disease rating (100 = 100% disease control, 0 = no disease control)” value came out at 51%. Besides, in the assay with Plasmopara viticola (setting [10]), the “Test B disease rating (100 = 100% disease control, 0 = no disease control)” value is 100%. Besides, the “Test E disease rating (100 = 100% disease control, 0 = no disease control)” value in assay [3] (setting [9]) is 0%.

`C[C@H](c1ccccc1)N(C)C(=O)c1csc(C2CCN(C(=O)Cc3ccncc3)CC2)n1` [compound 84]: the “Test D disease rating (100 = 100% disease control, 0 = no disease control)” value in the assay on Phytophthora infestans [1] (setting [8]) is 0%. Moreover, the “Test C disease rating (100 = 100% disease control, 0 = no disease control)” value in the assay on Phytophthora infestans [2] (setting [9]) came to 44%. Further, the “Test B disease rating (100 = 100% disease control, 0 = no disease control)” value with Plasmopara viticola (setting [10]) is given as 41%. In assay [3] (setting [9]), the “Test E disease rating (100 = 100% disease control, 0 = no disease control)” value was determined as 0%.

As for `Cc1cc(C(F)(F)F)nn1CC(=O)N1CCC(c2nc(C(=O)N(C)C(C)c3ccccc3Br)cs2)CC1` (stereo not drawn) [compound 252], the “Test D disease rating (100 = 100% disease control, 0 = no disease control)” value in the assay on Phytophthora infestans [1] (sprayed 17 h after inoculation, tested at 10 ppm (**)) is 85. In the assay on Phytophthora infestans [2] (sprayed the day before inoculation, tested at 10 ppm (**)), the “Test C disease rating (100 = 100% disease control, 0 = no disease control)” value is recorded as 99. Also, the “Test B disease rating (100 = 100% disease control, 0 = no disease control)” value in the assay with Plasmopara viticola (sprayed 24 h after inoculation, tested at 10 ppm (**)) stood at 99. The “Test E disease rating (100 = 100% disease control, 0 = no disease control)” value in assay [3] (sprayed the day before inoculation, 7 days at 20° C., tested at 10 ppm (**)) turned out to be 19.

For `Cc1cc(C(F)(F)F)nn1CC(=O)N1CCC(c2nc(C(=S)N(C)[C@@H]3CCCc4ccccc43)cs2)CC1` [Compound 289, N-methyl-2-[1-[[5-methyl-3-(trifluoromethyl)-1H-pyrazol-1-yl]acetyl]-4-piperidinyl]-N-[(1R)-1,2,3,4-tetrahydro-1-naphthalenyl]-4-thiazolecarbothioamide], in the assay on Phytophthora infestans [1] (sprayed 17 h after inoculation, tested at 40 ppm (*)), the “Test D disease rating (100 = 100% disease control, 0 = no disease control)” value stood at 99. Moreover, the “Test C disease rating (100 = 100% disease control, 0 = no disease control)” value in the assay on Phytophthora infestans [2] (sprayed the day before inoculation, tested at 40 ppm (*)) is given as 100. Moreover, in the assay with Plasmopara viticola (sprayed 24 h after inoculation, tested at 40 ppm (*)), the “Test B disease rating (100 = 100% disease control, 0 = no disease control)” value was found to be 100. The “Test E disease rating (100 = 100% disease control, 0 = no disease control)” value in assay [3] (sprayed the day before inoculation, 7 days at 20° C., tested at 40 ppm (*)) was 65.

With `Cc1cc(C(F)(F)F)nn1CC(=O)N1CCC(c2nc(C(=O)N3CCC4CCCCC4C3)cs2)CC1` (stereo not drawn) [compound 299], the “Test D disease rating (100 = 100% disease control, 0 = no disease control)” value with Phytophthora infestans [1] (setting [4]) was found to be 96. The “Test C disease rating (100 = 100% disease control, 0 = no disease control)” value in the assay with Phytophthora infestans [2] (setting [5]) was 99. In addition, in the assay with Plasmopara viticola (setting [6]), the “Test B disease rating (100 = 100% disease control, 0 = no disease control)” value was found to be 83. Also, the “Test E disease rating (100 = 100% disease control, 0 = no disease control)” value in assay [3] (setting [7]) stood at 0.

As to `Cc1cc(C(F)(F)F)nn1CC(=O)N1CCC(c2nc(C(=O)N3CC=C(c4ccccc4)CC3)cs2)CC1` [compound 311], the “Test D disease rating (100 = 100% disease control, 0 = no disease control)” value in the assay on Phytophthora infestans [1] (setting [4]) is recorded as 0. Also, the “Test C disease rating (100 = 100% disease control, 0 = no disease control)” value in the assay on Phytophthora infestans [2] (setting [5]) turned out to be 83. In addition, in the assay with Plasmopara viticola (setting [6]), the “Test B disease rating (100 = 100% disease control, 0 = no disease control)” value turned out to be 31. For the same compound, the “Test E disease rating (100 = 100% disease control, 0 = no disease control)” value in assay [3] (setting [7]) was 28.

For the compound `Cc1cc(C(F)(F)F)nn1CC(=O)N1CCC(c2nc(C(=O)N(C)[C@H](C(N)=O)c3ccccc3)cs2)CC1` [compound 247], the “Test D disease rating (100 = 100% disease control, 0 = no disease control)” value in the assay on Phytophthora infestans [1] (setting [8]) was 17%. The “Test C disease rating (100 = 100% disease control, 0 = no disease control)” value in the assay with Phytophthora infestans [2] (setting [9]) was 90%. Besides, the “Test B disease rating (100 = 100% disease control, 0 = no disease control)” value with Plasmopara viticola (setting [10]) is listed as 0%. In addition, the “Test E disease rating (100 = 100% disease control, 0 = no disease control)” value in assay [3] (setting [9]) came out at 0%.

With `Cc1cccnc1CC(=O)N1CCC(c2nc(C(=O)N(C)[C@@H]3CCCc4ccccc43)cs2)CC1` [compound 204], the “Test D disease rating (100 = 100% disease control, 0 = no disease control)” value in the assay on Phytophthora infestans [1] (setting [8]) amounted to 98%. Besides, the “Test C disease rating (100 = 100% disease control, 0 = no disease control)” value in the assay on Phytophthora infestans [2] (setting [9]) amounted to 99%. In the assay with Plasmopara viticola (setting [10]), the “Test B disease rating (100 = 100% disease control, 0 = no disease control)” value worked out at 16%. The “Test E disease rating (100 = 100% disease control, 0 = no disease control)” value in assay [3] (setting [9]) was 0%.
